Assay results taken from US11401260B2, “Biochemical binding of RET9 and VEGFR2 inhibitors” (Kala Pharmaceuticals, Inc., priority 2017, dated 2022).

Columns and labels:
RET9 = RET9 (Homo sapiens (Human), UniProt P07949); test: RET9 competition binding assay (DISCOVERX KINOMESCAN)
Description: A competition binding assay ([…]) was used to measure the ability of a compound to compete for binding of an immobilized adenosine triphosphate (ATP) site directed ligand using a DNA-tagged vascular endothelial growth receptor 2 (VEGFR2) as the target. The ability of the test compound to compete with the immobilized ligand was measured using quantitative polymerase chain reaction (qPCR) of the DNA tag (Fabian, M. A. et al., 23 Nature Biotechnology 329-336 (2005); Karaman, M. W. et al., 26 Nature Biotechnology 127-132 (2008)). Similarly, a competition binding assay ([…]) was used to determine the dissociation constant (Kd) of Compound 1 to RET9.

[1] = target: vascular endothelial growth receptor 2 (VEGFR2) (Homo sapiens (Human), UniProt P35968); test: VEGFR2 competition binding assay (DISCOVERX KINOMESCAN); details: 11-point dose response, 3-fold serial dilution starting at 1 μM
vascular endothelial growth receptor 2 (VEGFR2), sequence (P35968 20-1356): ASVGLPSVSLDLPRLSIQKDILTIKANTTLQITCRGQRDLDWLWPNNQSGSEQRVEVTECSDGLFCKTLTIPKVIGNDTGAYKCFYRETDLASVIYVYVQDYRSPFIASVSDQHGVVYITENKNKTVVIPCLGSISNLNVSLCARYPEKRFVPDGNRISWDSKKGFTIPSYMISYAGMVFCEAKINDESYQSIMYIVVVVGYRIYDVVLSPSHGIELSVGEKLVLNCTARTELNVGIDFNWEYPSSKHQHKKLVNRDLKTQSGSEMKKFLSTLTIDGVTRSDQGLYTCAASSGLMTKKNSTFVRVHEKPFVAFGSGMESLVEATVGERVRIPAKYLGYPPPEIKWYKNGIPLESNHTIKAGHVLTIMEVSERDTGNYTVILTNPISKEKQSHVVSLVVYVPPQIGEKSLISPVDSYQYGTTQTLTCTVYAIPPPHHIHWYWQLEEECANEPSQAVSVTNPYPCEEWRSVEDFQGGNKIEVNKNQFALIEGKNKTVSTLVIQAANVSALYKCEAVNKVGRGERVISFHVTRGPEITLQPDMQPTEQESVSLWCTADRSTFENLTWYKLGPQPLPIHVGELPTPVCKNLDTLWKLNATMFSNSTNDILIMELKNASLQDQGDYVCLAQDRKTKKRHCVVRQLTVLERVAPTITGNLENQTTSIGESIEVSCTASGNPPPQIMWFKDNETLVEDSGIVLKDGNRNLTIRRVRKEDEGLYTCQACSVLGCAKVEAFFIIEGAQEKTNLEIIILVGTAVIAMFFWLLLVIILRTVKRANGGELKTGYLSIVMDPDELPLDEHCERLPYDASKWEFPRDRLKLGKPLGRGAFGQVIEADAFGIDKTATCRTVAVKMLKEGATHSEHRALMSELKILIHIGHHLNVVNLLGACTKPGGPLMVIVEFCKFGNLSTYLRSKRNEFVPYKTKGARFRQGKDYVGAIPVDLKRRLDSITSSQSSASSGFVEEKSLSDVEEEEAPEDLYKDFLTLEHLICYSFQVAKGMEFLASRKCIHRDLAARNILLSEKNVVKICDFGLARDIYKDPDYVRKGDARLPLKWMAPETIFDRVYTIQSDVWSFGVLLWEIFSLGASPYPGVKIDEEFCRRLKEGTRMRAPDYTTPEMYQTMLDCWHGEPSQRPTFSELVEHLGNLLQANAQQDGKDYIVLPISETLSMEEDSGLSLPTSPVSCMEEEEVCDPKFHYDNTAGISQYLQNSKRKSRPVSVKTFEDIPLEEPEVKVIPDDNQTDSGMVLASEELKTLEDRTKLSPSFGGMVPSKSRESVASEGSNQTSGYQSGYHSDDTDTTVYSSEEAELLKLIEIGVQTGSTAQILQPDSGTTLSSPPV
Description: A competition binding assay ([…]) was used to measure the ability of a compound to compete for binding of an immobilized adenosine triphosphate (ATP) site directed ligand using a DNA-tagged vascular endothelial growth receptor 2 (VEGFR2) as the target. The ability of the test compound to compete with the immobilized ligand was measured using quantitative polymerase chain reaction (qPCR) of the DNA tag (Fabian, M. A. et al., 23 Nature Biotechnology 329-336 (2005); Karaman, M. W. et al., 26 Nature Biotechnology 127-132 (2008)). A VEGFR2 tagged T7 phage strain was prepared in an Escherichia coli (E. coli) derived from the BL21 strain. The E. coli were grown to log-phase, infected with VEGFR2 tagged T7 phage and then incubated with shaking at 32° C. until lysis. The lysate containing the kinase was then centrifuged and filtered to remove cell debris. Affinity resin for the VEGFR2 assay was prepared by treating Streptavidin-coated magnetic beads with a biotinylated small molecule ligand for 30 minutes at room temperature. […] The VEGFR2 concentration in the eluate was measured using qPCR. […] Binding constants were calculated with standard dose-response curve using the Hill equation with Hill slope set to -1. […]

RET9, sequence (P07949 other isoform, or with tags, fused parts or gaps): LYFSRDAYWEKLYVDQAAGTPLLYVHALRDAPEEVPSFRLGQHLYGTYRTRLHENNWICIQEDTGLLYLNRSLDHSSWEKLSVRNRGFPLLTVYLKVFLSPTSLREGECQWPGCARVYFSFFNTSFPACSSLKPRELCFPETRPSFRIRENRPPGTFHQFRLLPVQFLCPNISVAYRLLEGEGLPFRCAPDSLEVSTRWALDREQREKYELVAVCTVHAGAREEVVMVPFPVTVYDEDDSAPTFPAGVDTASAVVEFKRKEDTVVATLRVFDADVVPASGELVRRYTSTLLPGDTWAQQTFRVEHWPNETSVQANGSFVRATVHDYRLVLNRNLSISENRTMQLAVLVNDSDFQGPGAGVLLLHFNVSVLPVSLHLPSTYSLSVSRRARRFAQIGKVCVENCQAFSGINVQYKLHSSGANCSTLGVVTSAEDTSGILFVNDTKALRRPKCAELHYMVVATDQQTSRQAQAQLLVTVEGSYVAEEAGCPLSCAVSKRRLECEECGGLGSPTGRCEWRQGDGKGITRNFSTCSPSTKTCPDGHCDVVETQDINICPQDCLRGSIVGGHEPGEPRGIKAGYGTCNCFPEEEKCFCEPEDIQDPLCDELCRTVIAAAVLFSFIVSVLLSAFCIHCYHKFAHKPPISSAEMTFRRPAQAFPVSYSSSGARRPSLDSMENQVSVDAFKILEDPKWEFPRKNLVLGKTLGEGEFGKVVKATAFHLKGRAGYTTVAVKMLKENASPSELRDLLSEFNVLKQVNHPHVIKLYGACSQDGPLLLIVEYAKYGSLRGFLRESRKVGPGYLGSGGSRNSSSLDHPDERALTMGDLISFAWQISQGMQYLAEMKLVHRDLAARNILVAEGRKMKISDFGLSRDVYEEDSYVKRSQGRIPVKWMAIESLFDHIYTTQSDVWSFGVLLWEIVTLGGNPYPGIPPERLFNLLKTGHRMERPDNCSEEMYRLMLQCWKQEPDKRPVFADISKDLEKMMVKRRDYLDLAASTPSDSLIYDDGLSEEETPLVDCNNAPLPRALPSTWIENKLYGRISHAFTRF

Kd (RET9): 3.9 nM | Kd [1]: 0.38 nM
SMILES: COc1cc2c(Oc3ccc4[nH]c(C)cc4c3F)ncnc2cc1OCCCN1CCC(CO)(CO)CC1 [Compound 1, 7-(3-[4,4-bis(hydroxymethyl)-1-piperidinyl]propoxy)-4-(4-fluoro-2-methyl-1H-indol-5-yloxy)-6-methoxyquinazoline]
